Data on 2 molecules can be found in patent publication US20260364078A1, “PURINE NUCLEOSIDE PHOSPHORYLASE INHIBITORS FOR THE TREATMENT OF METABOLIC SYNDROME AND ASSOCIATED CONDITIONS” (METASHAPE PHARMA AG, priority 2022, published 2026).

In one data set the test system is brown adipocytes. To be noted: via cAMP/protein kinase A signalling pathway; cited from earlier work.
A further data set has as its system Diet induced obese mice. To be noted: cited from earlier work.
In another data set the test system is lymphocytes. As to the kind of experiment: Example 4: total lymphocytes by flow cytometry in DIO mouse model. Format: in vivo, C57/BL6J mice. To be noted: 3 days a week, 4 weeks. As for the experimental part:
The aim of this study is to determine the effect of increasing doses of ulodesine hemi glutarate on lymphocytes in whole blood.
Method: C57/BL6J mice were fed obesogenic diet D12492 (60 kcal % fat) from age 6 weeks. Eighteen weeks old mice (approximately 40 g) were either treated with vehicle (control) or ulodesine hemi glutarate at 1, 2, 5, and 10 mg/kg for only 3 days a week (days 1, 2 and 3) given orally for 4 weeks. At the end of four weeks, flow cytometry was used to enumerate total lymphocytes.

The next data set concerns DIO mouse model. The data set can be described thus: Example 2: low and intermittent dosing in DIO mouse model. Format: in vivo, C57/BL6J mice. To be noted: 2 mg/kg p.o., 3 days a week. The source says:
The aim of this study is to determine the effect of a low and intermittent dosing regime of ulodesine hemi glutarate on the following parameters: weight gain, food intake, fasting blood glucose concentration, serum insulin, serum cholesterol, plasma liver enzymes aspartate aminotransferase (AST) and alanine transaminase (ALT), inguinal white adipose tissue (iWAT), BAT; inosine in plasma and NAD+ in whole blood, and expression of lipogenesis (fatty acid synthesis) markers in iWAT and thermogenic markers in BAT. The study will assess ulodesine hemi glutarate efficacy on the listed parameters in the DIO mouse model of obesity and metabolic dysfunction.
(§1) Method: C57/BL6J mice were fed obesogenic diet D12492 (60 kcal % fat) from age 6 weeks. Nineteen week old mice (approximately 50 g) were either treated with vehicle (control) or ulodesine hemi glutarate at 2 mg/kg for 3 days a week (days 1, 2 and 3), given orally, over a 28 day period. On day minus 2 and on day 28, animals were fasted for 6 hr (only food withdrawn) and blood was collected for both blood glucose and cholesterol. On day 28 plasma liver enzymes (AST and ALT) and insulin were determined and additional plasma and whole blood was frozen and used for inosine and NAD+ measurement. BAT and iWAT was collected at the end of the study, weighed and quantitative PCR was performed for the lipogenesis markers Stearoyl CoA desaturase 1 (SCD-1) and fatty acid synthetase (FAS) and the thermogenesis marker uncoupling protein 1 (UCP-1). Inosine and NAD+ levels in stored plasma and whole blood respectively were determined by LC/MS/MS.

Data set [1] deals with fatty acid synthetase (FAS). The data set can be described thus: Example 2: quantitative PCR of lipogenesis marker FAS. Format: in vivo, C57/BL6J mice. To be noted: 2 mg/kg p.o., 3 days a week, 28 days; vs vehicle. The protocol:
as §1

The subject of data set [2] is uncoupling protein 1 (UCP-1). As to the kind of experiment: Example 2: quantitative PCR of thermogenesis marker in BAT. It counts as in vivo, C57/BL6J mice. To be noted: 2 mg/kg p.o., 3 days a week, 28 days; vs vehicle. The protocol: as §1
In data set [3] the test system is Stearoyl CoA desaturase 1 (SCD-1). The data set can be described thus: Example 2: quantitative PCR of lipogenesis marker SCD-1. It counts as in vivo, C57/BL6J mice. To be noted: 2 mg/kg p.o., 3 days a week, 28 days; vs vehicle. The protocol:
as §1

Data set [4] deals with Diet Induced Obesity (DIO) mouse model. The data set can be described thus: Example 1: low and intermittent dosing in DIO mouse model. Format: in vivo, C57/BL6J mice. To be noted: 2 mg/kg p.o., 3 days a week, 28 days. An excerpt:
The aim of the preliminary study is to determine the effect of low and intermittent dosing of ulodesine hemi glutarate on the following parameters: weight gain, food intake, fasting blood glucose concentration and serum cholesterol. The study assesses ulodesine hemi glutarate efficacy on the listed parameters in the DIO mouse model of obesity and metabolic dysfunction.
Method: C57/BL6J mice were fed obesogenic diet D12492 (60 kcal % fat) from age 6 weeks. Eighteen week old mice (approximately 40 g) were either treated with vehicle (control) or ulodesine hemi glutarate at 2 mg/kg for 3 days a week (days 1, 2 and 3) given orally, over a 28 day period. On day −2 and on day 28, animals were fasted for 6 hr by withdrawing food only, and blood was collected for both blood glucose and cholesterol measurements.

`OC[C@H]1O[C@@H](n2cnc3c(O)ncnc32)[C@H](O)[C@@H]1O` [inosine]: in the data set on brown adipocytes, the “energy expenditure in brown adipocytes” value is recorded as “stimulates energy expenditure”. Moreover, in the data set with Diet induced obese mice (diet induced obese mice, daily for 26 days, vs vehicle), the weight entry is “significant reduction in weight”. In addition, in the data set on Diet induced obese mice (mice), the “BAT dependent energy expenditure” value is reported as “increased BAT dependent energy expenditure” and the “browning of white adipose tissue” value was “induced browning of white adipose tissue”.

`O=c1[nH]cnc2c(CN3C[C@H](CO)[C@@H](O)C3)c[nH]c12` [ulodesine hemi glutarate]: the number of lymphocytes entry is “does not impact the number of lymphocytes” in the data set with lymphocytes (1 mg/kg p.o.); “does not impact the number of lymphocytes” in the data set on lymphocytes (2 mg/kg p.o.); “not significant at doses of 5 mg and 10 mg/kg, there appeared to be an observable decrease in lymphocytes” with lymphocytes (5 mg/kg p.o.); “not significant at doses of 5 mg and 10 mg/kg, there appeared to be an observable decrease in lymphocytes” in the data set on lymphocytes (10 mg/kg p.o.). For the same molecule, the insulin sensitivity entry in the data set on DIO mouse model (28 days) is “improves insulin sensitivity”. For the same molecule, the “toxicity or adverse effects” value (in the data set with DIO mouse model (28 days); in data set [4]) was “no signs of any toxicity or adverse effects” in each case. The “decrease in weight gain” value with DIO mouse model (28 days, ~50 g mice, vs control) is “not significantly different from the control group”. Besides, the “NAD+ in whole blood” value in the data set with DIO mouse model (day 28, LC/MS/MS) is “significantly elevated”. Further, the inosine in plasma result in the data set on DIO mouse model (day 28, LC/MS/MS) is listed as “significantly elevated”. For the same molecule, the “expression of lipogenesis marker FAS in WAT tissue” value in data set [1] is on record as “decrease”. In addition, the “expression of thermogenic marker UCP-1 in BAT tissue” value in data set [2] is “increase in expression”. In data set [3], the “expression of lipogenesis marker SCD-1 in WAT tissue” value is “decrease”. Besides, in data set [4] (vs control), the fasting blood glucose entry is recorded as “decrease in blood glucose”. Also, in data set [4] (vs control), the serum cholesterol entry was “decrease in blood glucose and serum cholesterol”. Besides, the weight gain result in data set [4] (~40 g mice, vs control) is recorded as “significant decrease in weight gain”.
